What all share (format): cell-based
In one assay the test system is KERtr cells. Put plainly: Keratinocyte proliferation assay. The conditions noted are these: Homo sapiens, 72 h, BrdU incorporation, several values separated by /, read-out: Kera. Prolif. IC50. On the procedure: 5. The Keratinocyte Proliferation Assay
This Assay is indicative for the treatment of psoriasis.
(5) The Keratinocyte Proliferation Assay:
KERtr cells (Human skin keratinocyte transformed with a retrovirus vector, obtained from ATCC) were plated in 96-well flat-bottomed plates (3000 cells/well) in 100 μl keratinocyte serum free medium supplemented with bovine pituitary extract in the absence of EGF (Life Technologies, Rockville, Md.) and incubated at 37° C. for two days. The cells were treated with various concentrations of VDR ligands (ten-fold serial dilution from 10,000 nM to 0.1 nM in triplicate), dissolved in 100 μl keratinocyte serum free medium supplemented with bovine pituitary extract in the absence of EGF and incubated at 37° C. for 72 hr. […] Potency values (IC50) values were determined as the concentration (nM) of compound that elicited a half-maximal response.
In general terms: Uptake of a labelled nucleoside into DNA is a usual measure of proliferation.

For the next assay, the target named is T1, VDR (Homo sapiens, UniProt P11473).
T1 construct: the receptor expression vector pGal4-VDR-LBD (10 ng); expressed in transfected cells; host or cells: Caco-2 cells
T1 sequence (P11473 127-423 limits assumed): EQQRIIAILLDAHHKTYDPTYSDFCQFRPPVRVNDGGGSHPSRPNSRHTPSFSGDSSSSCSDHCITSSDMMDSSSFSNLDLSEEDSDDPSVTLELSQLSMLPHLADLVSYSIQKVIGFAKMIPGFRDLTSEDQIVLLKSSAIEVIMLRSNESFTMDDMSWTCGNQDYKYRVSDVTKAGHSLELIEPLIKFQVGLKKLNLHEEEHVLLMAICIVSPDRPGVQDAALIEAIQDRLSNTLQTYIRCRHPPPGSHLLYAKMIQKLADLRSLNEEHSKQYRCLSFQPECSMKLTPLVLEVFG
Put plainly: VDR CTF (Caco-2 cell co-transfection) assay. As to conditions: Caco-2 cells, pGal4-VDR-LBD co-transfection, luciferase; several values separated by /. On the procedure:
2. The Caco-2 Cell Co-Transfection Assay:
The Caco-2 cell assay is an indicator for the undesirable condition of hypercalcemia. This co-transfection assay is a surrogate assay for in vivo calcemic activity of VDR ligands. […] Preferred assay results are greater than 1000 nM.
(2) Materials and Method for the Caco-2 Cell Assay:
Caco-2 cells, grown in phenol red free, DMEM (Invitrogen, Carlsbad, Calif.) containing 10% charcoal-stripped FCS (Hyclone, Logan, Utah), were transfected with Fugene 6 reagent (Roche Diagnostics, Indianapolis, Ind.). Cells (5000/well) were plated 18 h before transfection in a 96 well plate. The Cells were transfected with Gal4-responsive reporter pFRLuc (150 ng, Stratagene, La Jolla Calif.) and the receptor expression vector pGal4-VDR-LBD (10 ng), along with Fugene 6 reagent (0.2 μl/well). The DNA-Fugene complex was formed by incubating the mixture for 30 min at room temperature. The cells were transfected in triplicate for 5 h, and treated with various concentrations of VDR ligands (form 0.01 nM to 10,000 nM concentration range) 18 h post-transfection. The luciferase activity was quantified using Steady-Glo reagent kit (Promega, Madison, Wis.) as per manufacturer's specifications.

Another assay has as its target T2, RXR-VDR heterodimer (Homo sapiens, UniProt P11473).
T2 construct: Add the Gal4-RXR-DEF and VP16-VDR-LBD; expressed in transfected cells; host or cells: SaOS-2 cells
T2 sequence (P11473 127-423 limits assumed): T1 sequence (P11473 127-423 limits assumed)
T2 sequence (P19793 201-462 partner limits assumed): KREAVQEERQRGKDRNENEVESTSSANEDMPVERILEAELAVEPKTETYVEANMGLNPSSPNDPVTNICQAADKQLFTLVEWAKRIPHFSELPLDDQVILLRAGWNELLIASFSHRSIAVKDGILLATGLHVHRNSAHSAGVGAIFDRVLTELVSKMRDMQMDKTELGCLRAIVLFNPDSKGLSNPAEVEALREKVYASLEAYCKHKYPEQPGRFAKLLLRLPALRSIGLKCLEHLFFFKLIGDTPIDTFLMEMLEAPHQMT
Put plainly: RXR-VDR heterodimerization assay (SaOS-2 cells). The conditions noted are these: Gal4-RXR-DEF/VP16-VDR-LBD luciferase reporter, several values in a cell separated by /. On the procedure:
1. The RXR-VDR Heterodimer Assay:
This assay provides the VDR activity of a test compound.
(1) Materials and Method for RXR-VDR Heterodimerization Assay:
Luciferase Assay Reagent: • Use Steady-Glo Luciferase Reagent from Promega (Cat #E2550) Consists of: a. E2533 Assay Substrate, lyopholized product and b. E2543 Assay Buffer. • Thaw at room temperature • Store Cell Harvesting Aspirate media from culture flask, rinse cells with HBSS and aspirate. Add trypsin and incubate. When cells appear detached, resuspend cells in growth media. Transfer into a new flask with fresh growth media for passaging the cells. Plate well plates and two extra plates A. Cell Count Mix the cell suspension using pipette Use Hematocytometer to count the cells Load cell suspension onto the hemocytometer chamber Count cells. […] In sterile flask add cell suspension to plating media. Mix. Add cells/well. Place the cells in the incubator. Cells should be about 75% confluent prior to transfection. DAY 2: Transfection Step 1: DNA and Media Add plain DMEM media to tubes for mixing the DNA Add the Reporter gene pFR-LUC Add the Gal4-RXR-DEF and VP16-VDR-LBD Step 2: FuGENE and Media Prepare plain DMEM media in a ubes for mixing FuGENE Add FuGENE 6 Transfection Reagent Incubate Step 3: FuGENE, DNA and Media Complex Add FuGENE Media complex from step 2 to DNA Media complex from step 1 Incubate Step 4: FuGENE, DNA and Media Complex to-well plate Add FuGENE-DNA-Media complex from step 3 to each plate Incubate. […] Day 4: Luciferase Assay Read the plates after drug treatment Remove part of media from all the wells and leave remainder Add Steady-Glo Luciferase Reagent mixture/wells Incubate Count each well using a Luminescence counter, Top Count NXT by Packard
Set a delay between plates to reduce the background.

The next assay has as its system rat osteocalcin promoter. Put plainly: OCN (osteocalcin) promoter assay. As to conditions: RG-15 (ROS 17/2.8) cells, 48 hr treatment, luciferase, several values separated by /. As to the method:
3. The OCN (Osteocalcin) Promoter Assay
The OCN Promoter Assay is an indicator and marker for osteoporosis. […] Preferred assay results are less than 50 nM.
(3) Materials and Method for The OCN Promoter Assay:
The activation of osteocalcin by VDR ligands was evaluated in a rat osteoblast-like cell line RG-15 (ROS 17/2.8) stably expressing rat osteocalcin promoter fused with luciferase reporter gene. […] Confluent RG-15 cells maintained in DMEM/F-12 medium (3:1) containing 5% FBS, 300 μg/ml G418 and at 37° C. under 5% CO2/95% air atmosphere were trypsinized (0.25% trypsin) and plated into white opaque 96-well cell culture plates (25000 cells/well). After 24 hr, cells (in DMEM/F-12 medium+2% FBS) were treated with various concentrations of compounds, dissolved in DMSO. The final DMSO concentration remained at 0.01% (v/v). After 48 hr treatment, the medium was removed, cells were lysed with 50 μl of lysis buffer (From Luciferase reporter assay system, Roche Diagnostics, Indianapolis, Ind.) and assayed for luciferase activity using the Luciferase Reporter Gene Assay kit from Boehringer Mannheim as per manufacturer's specifications.

“And” between values parts separate entries of the source, which are not always exact repeats. Equal entries are not always repeated.

Broadly, the IC50 is the concentration that gives 50% inhibition. The term EC50 denotes the midpoint of the concentration-response curve. With `CCC(CC)(c1ccc(OCC(=O)C(C)(C)C)c(C)c1)c1cc2ccc(C(=O)NCC(=O)O)cc2o1` [Ex 20, [(2-{1-[4-(3,3-Dimethyl-2-oxo-butoxy)-3-methyl-phenyl]-1-ethyl-propyl}-benzofuran-6-carbonyl)-amino]-acetic acid], the IC50 in the assay on KERtr cells worked out at 1000 nM. The EC50 was 773 nM on VDR; 264 nM and 68 nM on RXR-VDR heterodimer.
For the molecule `CCC(CC)(c1ccc(OCC(O)C(C)(C)C)c(C)c1)c1ccc2oc(C(=O)N(C)C)c(C)c2c1` (stereo not shown) [Ex 37, 5-{1-ethyl-1-[4-(2-hydroxy-3,3-dimethyl-butoxy)-3-methyl-phenyl]-propyl}-3-methyl-benzofuran-2-carboxylic acid dimethylamide], in the assay on KERtr cells, the IC50 was > 1000 nM. The EC50 on VDR was 865 nM; on RXR-VDR heterodimer, 777 nM and 133 nM.
As to `CCC(CC)(c1ccc(OCC(O)C(C)(C)C)c(C)c1)c1cc2cc(C(=O)O)ccc2o1` (stereo not shown) [Ex. 4, 2-{1-Ethyl-1-[4-(2-hydroxy-3,3-dimethyl-butoxy)-3-methyl-phenyl]-propyl}-benzofuran-5-carboxylic acid], at VDR, the EC50 was 312 nM and 368 nM.
Consider `CCC(CC)(c1ccc(OCC(=O)C(C)(C)C)c(C)c1)c1cc2cc(C(=O)NC(C)(C)C(=O)O)ccc2o1` [Ex. 10, 2-[(2-{1-[4-(3,3-Dimethyl-2-oxo-butoxy)-3-methyl-phenyl]-1-ethyl-propyl}-benzofuran-5-carbonyl)-amino]-2-methyl-propionic acid], for which the IC50 in the assay with KERtr cells turned out to be 215 nM. Moreover, the EC50 on RXR-VDR heterodimer came to 235 nM; in the assay with rat osteocalcin promoter (Rattus norvegicus, 48 h) it was 275 nM.
For the molecule `CCC(CC)(c1ccc(OCC(O)C(C)(C)C)c(C)c1)c1cc2cc(C(=O)Nc3nn[nH]n3)ccc2o1` (stereo not shown) [Ex. 13, 2-{1-Ethyl-1-[4-(2-hydroxy-3,3-dimethyl-butoxy)-3-methyl-phenyl]-propyl}-benzofuran-5-carboxylic acid (2H-tetrazol-5-yl)-amide], the IC50 in the assay with KERtr cells is > 1000 nM. For the same molecule, the EC50 at VDR was determined as 602 nM; in the assay on rat osteocalcin promoter (Rattus norvegicus, 48 h), 3 nM.
With `CCC(CC)(c1ccc(OCC2(C(C)(C)C)OCCO2)c(C)c1)c1cc(C)c2oc(C(=O)N(C)C)cc2c1` [Ex 25, 5-{1-[4-(2-tert-Butyl-[1,3]dioxolan-2-ylmethoxy)-3-methyl-phenyl]-1-ethyl-propyl}-7-methyl-benzofuran-2-carboxylic acid dimethylamide], in the assay with KERtr cells, the IC50 was 1000 nM. Moreover, the EC50 at RXR-VDR heterodimer amounted to 67 nM; in the assay with rat osteocalcin promoter (Rattus norvegicus, 48 h), 1000 nM.
`CCC(CC)(c1ccc(OCC(=O)C(C)(C)C)c(C)c1)c1cc2cc(C(=O)N(C)C)ccc2o1` [Ex. 5, 2-{1-[4-(3,3-Dimethyl-2-oxo-butoxy)-3-methyl-phenyl]-1-ethyl-propyl}-benzofuran-5-carboxylic acid dimethylamide]: the half-maximal effective concentration (EC50) at VDR worked out at 1200 nM; in the assay on rat osteocalcin promoter it was 79 nM; with rat osteocalcin promoter (Rattus norvegicus, 48 h) it was 106 nM.
On to `CCC(CC)(c1ccc(OCC(O)C(C)(C)C)c(C)c1)c1ccc2oc(C(=O)O)c(C)c2c1` (stereo not shown) [Ex 35, 5-{1-Ethyl-1-[4-(2-hydroxy-3,3-dimethyl-butoxy)-3-methyl-phenyl]-propyl}-3-methyl-benzofuran-2-carboxylic acid], for which the IC50 in the assay with KERtr cells worked out at 700 nM. The EC50 on VDR stood at 753 nM; in the assay on rat osteocalcin promoter, 21 nM; with rat osteocalcin promoter (Rattus norvegicus, 48 h), 13 nM.
`CCC(CC)(c1ccc(OCC(=O)C(C)(C)C)c(C)c1)c1cc2cc(C(=O)N(C)CC(=O)O)ccc2o1`: the IC50 in the assay with KERtr cells came out at 10 nM. For the same molecule, the EC50 was found to be 9 nM on RXR-VDR heterodimer and 7 nM in the assay on rat osteocalcin promoter (Rattus norvegicus, 48 h).
As for `CCC(CC)(c1ccc(OCC(O)C(C)(C)C)c(C)c1)c1cc2cc(C(=O)NCC(=O)O)ccc2o1` (stereo not shown) [Ex. 8, [(2-{1-Ethyl-1-[4-(2-hydroxy-3,3-dimethyl-butoxy)-3-methyl-phenyl]-propyl}-benzofuran-5-carbonyl)-amino]-acetic acid], in the assay on KERtr cells, the IC50 was found to be 0.3 nM. Moreover, the EC50 was 120 nM on VDR; 6 nM and 2 nM on RXR-VDR heterodimer; 0.6 nM in the assay with rat osteocalcin promoter (Rattus norvegicus, 48 h).
As for `CCC(CC)(c1ccc(OCC(O)C(C)(C)C)c(C)c1)c1cc(C)c2oc(C(=O)NCC(=O)O)cc2c1` (stereo not shown) [Ex 29, [(5-{1-Ethyl-1-[4-(2-hydroxy-3,3-dimethyl-butoxy)-3-methyl-phenyl]-propyl}-7-methyl-benzofuran-2-carbonyl)-amino]-acetic acid], in the assay on KERtr cells, the IC50 came to 414 nM. Further, the EC50 on RXR-VDR heterodimer stood at 71 nM; in the assay with rat osteocalcin promoter (Rattus norvegicus, 48 h), 3 nM.
For `CCC(CC)(c1ccc(OCC(O)C(C)(C)C)c(C)c1)c1ccc2oc(C(=O)NCC(=O)O)cc2c1` (stereo not shown) [Ex 33, [(5-{1-ethyl-1-[4-(2-hydroxy-3,3-dimethyl-butoxy)-3-methyl-phenyl]-propyl}-benzofuran-2-carbonyl)-amino]-acetic acid], the EC50 at VDR is 178 nM; on RXR-VDR heterodimer, 9 nM; with rat osteocalcin promoter (Rattus norvegicus, 48 h) it was 0.4 nM.
As for `CCC(CC)(c1ccc(OCC(O)C(C)(C)C)c(C)c1)c1cc(C)c2oc(C(=O)N(C)C)cc2c1` (stereo not shown) [Ex 27, 5-{1-Ethyl-1-[4-(2-hydroxy-3,3-dimethyl-butoxy)-3-methyl-phenyl]-propyl}-7-methyl-benzofuran-2-carboxylic acid dimethylamide], the IC50 in the assay with KERtr cells is > 1000 nM. The EC50 is 154 nM and 51 nM on RXR-VDR heterodimer; 17 nM in the assay on rat osteocalcin promoter; 9 nM in the assay on rat osteocalcin promoter (Rattus norvegicus, 48 h).

For the origin of these results see patent US7579488B2 (Eli Lilly and Company, priority 2003, dated 2009).
